# Results reported in US20120237567A1, “MODULATING LYMPHATIC FUNCTION” (THE GENERAL HOSPITAL CORPORATION, priority 2004, published 2012).
# Columns and labels:
# [1] = set-up: species or system C57BL/6 mice; conditions: mouse, in vivo
# Experimental: 8 week old, female C57BL/6 mice were weighed and anesthetized (90 mg/kg Ketamine and 9 mg/kg Xylazine). Mean arterial pressure (MAP) was measured by cannulating the exposed left carotid artery with a PE-10 intravascular polyethylene catheter, connected to a pressure transducer (Gould Inc, Valley View, Ohio).
# [2] = system: mouse tail lymphatic network (initial lymphatics); experiment: Mouse tail microlymphangiography with residence time distribution (RTD) analysis of lymphatic function; type: in vivo, mice (C57BL/6); conditions: for overall lymphatic fluid velocity in the dermal lymphatic network: collecting lymphatics not ligated
# Experimental: Studies were carried out in 7-10 week old female C57BL/6 and nude mice. Forty-eight mice were used for these experiments: sixteen for the inhibition experiments, fifteen for the ligation experiment, and seventeen additional controls. All procedures were carried out following the guidelines of the Institutional Animal Care and Use Committee of the Massachusetts General Hospital.
# Mice in the experimental groups 5 and 6 underwent ligation of the deep collecting lymphatic vessels of the tail immediately before the microlymphangiography, to avoid development of edema (FIG. 1). Mice were anesthetized intramuscularly (90 mg/kg Ketamine and 9 mg/kg Xylazine) and placed on a heated surgical microscopy table. The translucent deep collecting lymphatic vessels were separated from the tail veins with microsurgical forceps through small, bilateral incisions in the axial direction, and ligated with a 10-O non-absorbable suture (Prolene, Ethicon, N.J., United States). The incision site was closed with surgical glue, taking care to avoid circumferential tension on the tail that could interfere with superficial lymphatic function.
# Fluorescence intensity measurements were carried out using RTD analysis as described previously (Swartz et al., Am J Physiol. 1996, 270:H324-H329). Briefly, mice were anesthetized intramuscularly (90 mg/kg Ketamine and 9 mg/kg Xylazine) and placed on a small plate. 2.5% FITC-dextran (MW=2 million; Sigma, St. Louis, Mo.) in PBS was infused into the interstitial tissue of the tail tip, with a constant pressure of 40 cm H2O via a 30-gauge needle. […] The mouse was transferred to an epifluorescence microscopy setup as described previously (Leu et al., Am J Physiol. 1994, 267:H1507-H1513). […] The temporally consecutive fluorescent images were analyzed offline using NIH Image Analysis software. The average fluorescence intensity was determined for each image, and used to calculate the mean residence time for each region, the overall lymph fluid velocity in the tail lymphatic network, and the mean LV diameter.
# [3] = 3 days of treatment, not ligated, mean±SE
# [4] = after ligation of the collecting lymphatics, 3 days of treatment, mean±SE
SMILES,MAP (mean arterial pressure) [1],"decrease of overall lymphatic fluid velocity compared to controls that had received D-NMMA ([2]; 3 days of L-NMMA treatment, not ligated)","overall lymphatic fluid velocity in the dermal lymphatic network ([2]; 3 days of treatment, mean±SE)","injection rate of the fluorescent tracer into the interstitium [2, 3]","mean lymphatic vessel diameter [2, 3]","injection rate [2, 4]","mean lymphatic vessel diameter [2, 4]","lymphatic fluid velocity compared with controls treated with D-NMMA or AP (FIG. 2A) ([2]; not ligated, result in words)","mean lymphatic vessel diameter compared with controls (FIG. 2C) ([2]; not ligated, result in words)"
"CNC(=N)NCCC[C@H](N)C(=O)O [L-NMMA, NG-monomethyl-L-arginine]",71.7±1.4 mmHg,42%,5.1±0.6 μm/s,11.3 ± 1.2 nL/min,61.5±0.7 μm,25.0 ± 1.3 nL/min,77.2±2.1 μm,significantly lower,not different
CN=C(N)NCCC[C@@H](N)C(=O)O [D-NMMA],,,8.7±0.4 μm/s,15.7 ± 1.5 nL/min,61.6±1.6 μm,,,,
